In patent publication US6160175A, “Naphthyl acetamides as sPLA2 inhibitors” (Eli Lilly and Company, priority 1996, dated 2000):

Target: T1, recombinant human secreted phospholipase A2 (Homo sapiens, UniProt P14555)
T1 sequence (P14555 21-144): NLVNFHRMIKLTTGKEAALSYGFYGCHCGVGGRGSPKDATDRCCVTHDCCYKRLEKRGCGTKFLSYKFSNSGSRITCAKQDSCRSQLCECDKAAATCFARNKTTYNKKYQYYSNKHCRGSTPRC
Assay: Chromogenic assay; Human Secreted Phospholipase A2 Inhibition Tests
Assay type: biochemical
Conditions: racemic diheptanoyl thio-PC substrate 1 mM, Triton X-100 0.29 mM, pH 7.5, 40° C., 30 minutes, 405 nm; read-out: Inhibition of human secreted PLA2, IC50 ± mean deviation (3-4 tests)
Source text: The following chromogenic assay procedure was used to identify and evaluate inhibitors of recombinant human secreted phospholipase A2. The assay described herein has been adapted for high volume screening using 96 well microtiter plates. A general description of this assay method is found in the article, "Analysis of Human Synovial Fluid Phospholipase A2 on Short Chain Phosphatidylcholine-Mixed Micelles: Development of a Spectrophotometric Assay Suitable for a Microtiterplate Reader", by Laure J. Reynolds, Lori L. Hughes, and Edward A. Dennis, Analytical Biochemistry, 204, pp. 190-197, 1992 (the disclosure of which is incorporated herein by reference):
A measured volume of racemic dipheptanoyl thio PC supplied in chloroform at a concentration of 100 mg/ml is taken to dryness and redissolved in 10 millimolar TRITON X-100™ nonionic detergent aqueous solution. Reaction Buffer is added to the solution, then DTNB to give the Reaction Mixture.
The reaction mixture thus obtained contains 1 mM diheptanoly thio-PC substrate, 0.29 mm Triton X-100™ detergent, and 0.12 mm DTMB in a buffered aqueous solution at pH 7.5.
1. Add 0.2 ml reaction mixture to all wells;
2. Add 10 ul test compound (or solvent blank) to appropriate wells, mix 20 seconds;
3. Add 50 nanograms of sPLA2 (10 microliters) to appropriate wells;
4. Incubate plate at 40° C. for 30 minutes;
5. Read absorbance of wells at 405 nanometers with an automatic plate reader.
All compounds were tested in triplicate. Typically, compounds were tested at a final concentration of 5 ug/ml. […] Lack of color development at 405 nanometers evidenced inhibition. Compounds initially found to be active were reassayed to confirm their activity and, if sufficiently active, IC50 values were determined. […] In all cases, % inhibition measured at 405 nanometers generated by enzyme reactions containing inhibitors relative to the uninhibited control reactions was determined. […] IC50 were determined by plotting log concentration versus inhibition values in the range from 10-90% inhibition.

IC50 [µM]	Structure (SMILES)
0.87	NC(=O)Cc1ccc(Cc2ccccc2)c2ccccc12 [Compound A, 4-Benzyl-1-naphphylacetamide]
51	O=C(O)Cc1ccc(Oc2ccccc2)c2ccccc12 [Compound B, 4-Phenoxynaphth-1-yl acetic acid]
4.4	NC(=O)Cc1ccc(Oc2ccccc2)c2ccccc12 [Compound C, 4-Phenoxynaphth-1-yl acetamide]
